Results taken from patent US20210198277A1, “AMINE-SUBSTITUTED ARYL OR HETEROARYL COMPOUNDS” (Epizyme, Inc., priority 2016, published 2021).

These molecules were tested against T1, EHMT2 (Homo sapiens, UniProt Q96KQ7) (assay: MDA-MB-231 H3K9me2 in-cell Western assay (EHMT2 ICW)). Settings: Table III; MDA-MB-231 H3K9me2 in-cell Western; read-out: EHMT2 ICW (IC50 μM).
T1 construct: host or cells: MDA-MB-231
T1 sequence (Q96KQ7 1-1210): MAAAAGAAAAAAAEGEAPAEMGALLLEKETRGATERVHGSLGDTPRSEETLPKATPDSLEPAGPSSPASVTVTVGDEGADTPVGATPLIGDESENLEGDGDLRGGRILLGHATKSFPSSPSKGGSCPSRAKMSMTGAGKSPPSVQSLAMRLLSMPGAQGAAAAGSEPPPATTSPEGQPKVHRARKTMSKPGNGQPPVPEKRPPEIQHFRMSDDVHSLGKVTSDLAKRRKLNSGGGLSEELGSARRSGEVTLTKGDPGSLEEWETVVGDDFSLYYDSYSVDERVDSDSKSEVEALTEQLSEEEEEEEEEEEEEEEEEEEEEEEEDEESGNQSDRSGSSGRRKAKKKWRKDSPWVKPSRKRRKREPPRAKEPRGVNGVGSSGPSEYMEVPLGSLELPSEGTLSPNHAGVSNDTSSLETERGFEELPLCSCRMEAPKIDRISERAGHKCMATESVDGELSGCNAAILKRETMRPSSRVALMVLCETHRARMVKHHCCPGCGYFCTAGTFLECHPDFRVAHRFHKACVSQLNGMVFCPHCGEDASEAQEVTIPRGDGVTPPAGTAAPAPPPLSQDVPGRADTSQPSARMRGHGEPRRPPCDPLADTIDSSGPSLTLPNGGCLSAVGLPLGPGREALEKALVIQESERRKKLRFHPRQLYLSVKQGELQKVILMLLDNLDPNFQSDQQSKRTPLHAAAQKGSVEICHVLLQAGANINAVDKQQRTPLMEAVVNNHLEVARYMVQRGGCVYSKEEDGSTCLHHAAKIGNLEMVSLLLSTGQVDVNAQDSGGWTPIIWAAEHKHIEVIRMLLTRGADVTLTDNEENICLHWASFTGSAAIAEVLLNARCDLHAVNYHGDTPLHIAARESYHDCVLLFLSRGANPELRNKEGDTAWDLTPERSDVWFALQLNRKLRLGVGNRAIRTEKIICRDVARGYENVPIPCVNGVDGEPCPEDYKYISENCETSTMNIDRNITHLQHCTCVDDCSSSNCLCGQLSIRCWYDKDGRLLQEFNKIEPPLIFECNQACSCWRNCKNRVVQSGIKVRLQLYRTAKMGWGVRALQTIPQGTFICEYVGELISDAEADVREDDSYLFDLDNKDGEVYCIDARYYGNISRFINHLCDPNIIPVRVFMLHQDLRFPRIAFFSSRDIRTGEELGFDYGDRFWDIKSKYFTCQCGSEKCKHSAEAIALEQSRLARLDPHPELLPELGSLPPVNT
Assay type: cell-based
Outline: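 Infrared read-out at 800 and 700 nm (H3K9me2 antibody vs DRAQ5 DNA stain) of fixed MDA-MB-231 cells after 48 h compound treatment at 37 °C. Well ratios were converted to percent inhibition, and IC50 was obtained by variable-slope nonlinear regression on triplicates.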

Row | IC50 [µM] | SMILES
1 | 1 to 10 | CNc1cc(Nc2cc(OCCCN3CCCC3)c(OC)cn2)cc(C)n1 [Compound 308, N^4-(5-methoxy-4-(3-(pyrrolidin-1-yl)propoxy)pyridin-2-yl)-N^2,6-dimethylpyridine-2,4-diamine]
2 | 0.1 to 1 | CNc1cc(Nc2cc(OCCCN3CCCC3)c(OC)cn2)nc(C)c1F [Compound 309, 5-fluoro-N^2-(5-methoxy-4-(3-(pyrrolidin-1-yl)propoxy)pyridin-2-yl)-N^4,6-dimethylpyridine-2,4-diamine]
3 | > 10 | COc1cnc(Nc2nc(C)cc3[nH]ccc23)cc1OCCCN1CCCC1 [Compound 310]
4 | > 10 | CNc1cc(C)nc(Nc2ccc(OC)c(OCCOC)c2)n1 [Compound 311, N^2-(4-methoxy-3-(2-methoxyethoxy)phenyl)-N^4,6-dimethylpyrimidine-2,4-diamine]
5 | > 10 | CNc1cc(C)nc(Nc2ccc(OC)c(OCCCOC)c2)n1 [Compound 312, N^2-(4-methoxy-3-(3-methoxypropoxy)phenyl)-N^4,6-dimethylpyrimidine-2,4-diamine]
6 | 1 to 10 | CNc1cc(C)nc(Nc2ccc(C3CC3)c(OCCCN3CCCC3)c2)n1 [Compound 313, N^2-(4-cyclopropyl-3-(3-(pyrrolidin-1-yl)propoxy)phenyl)-N^4,6-dimethylpyrimidine-2,4-diamine]
7 | 1 to 10 | CNc1ccnc(Nc2ccc(C3CC3)c(OCCCN3CCCC3)c2)n1 [Compound 314, N^2-(4-cyclopropyl-3-(3-(pyrrolidin-1-yl)propoxy)phenyl)-N^4-methylpyrimidine-2,4-diamine]
8 | 1 to 10 | CNc1cc(C)nc(Nc2ccc(OC)c(OC[C@H]3C[C@@H](N(C)C)C3)c2)n1 [Compound 316]
9 | 1 to 10 | CCc1nc(Nc2ccc(OC)c(OCCCN3CCCC3)c2)nc(NC)c1F [Compound 319, 6-ethyl-5-fluoro-N^2-(4-methoxy-3-(3-(pyrrolidin-1-yl)propoxy)phenyl)-N^4-methylpyrimidine-2,4-diamine]
10 | 0.1 to 1 | CNc1cc(C2CC2)nc(Nc2ccc(OC)c(OCCCN3CCCC3)c2)n1 [Compound 320, 6-cyclopropyl-N^2-(4-methoxy-3-(3-(pyrrolidin-1-yl)propoxy)phenyl)-N^4-methylpyrimidine-2,4-diamine]
11 | > 10 | COc1cnc(Nc2cnc3ccccn23)cc1OCCCN1CCCC1 [Compound 321, N-(5-methoxy-4-(3-(pyrrolidin-1-yl)propoxy)pyridin-2-yl)imidazo[1,2-a]pyridin-3-amine]
12 | 1 to 10 | CNc1ccnc(Nc2ccc(OC)c(OCCCN3CC(C)C3)c2)n1 [Compound 423, N^2-(4-methoxy-3-(3-(3-methylazetidin-1-yl)propoxy)phenyl)-N^4-methylpyrimidine-2,4-diamine]
13 | 1 to 10 | CNc1ccnc(Nc2ccc(OC)c(OCCCN(C)CC3CC3)c2)n1 [Compound 424, N^2-(3-(3-((cyclopropylmethyl)(methyl)amino)propoxy)-4-methoxyphenyl)-N^4-methylpyrimidine-2,4-diamine]
14 | 1 to 10 | CNc1ccnc(Nc2ccc(OC)c(OCCCN3CC(OC)C3)c2)n1 [Compound 425, N^2-(4-methoxy-3-(3-(3-methoxyazetidin-1-yl)propoxy)phenyl)-N^4-methylpyrimidine-2,4-diamine]
15 | > 10 | CNc1ccnc(Nc2ccc(OC)c(OCc3cc(C4CC4)on3)c2)n1 [Compound 426, N^2-(3-((5-cyclopropylisoxazol-3-yl)methoxy)-4-methoxyphenyl)-N^4-methylpyrimidine-2,4-diamine]
16 | > 10 | CNc1ccnc(N[C@@H]2CCC[C@H](OCCCN3CCCC3)C2)n1 [Compound 427]
17 | 1 to 10 | CNc1cc(CC(F)(F)F)nc(Nc2ccc(OC)c(OCCCN3CCCC3)c2)n1 [Compound 428, N^2-(4-methoxy-3-(3-(pyrrolidin-1-yl)propoxy)phenyl)-N^4-methyl-6-(2,2,2-trifluoroethyl)pyrimidine-2,4-diamine]

Row | IC50 [µM] | SMILES
18 | 1 to 10 | CNc1ccnc(Nc2ccc(OC)c(OCCCN3CCC3C)c2)n1 (centres unmarked) [Compound 429, N^2-(4-methoxy-3-(3-(2-methylazetidin-1-yl)propoxy)phenyl)-N^4-methylpyrimidine-2,4-diamine]
19 | > 10 | CCOc1ccc(Nc2nccc(NC)n2)cc1OCCCN1CCCC1 [Compound 430, N^2-(4-ethoxy-3-(3-(pyrrolidin-1-yl)propoxy)phenyl)-N^4-methylpyrimidine-2,4-diamine]
20 | > 10 | CCOc1ccc(Nc2nccc(NC)n2)cc1OCC1CCN(C)C1 (centres unmarked) [Compound 431]
21 | > 10 | CCOc1ccc(Nc2nc(C)cc(NC)n2)cc1OCCCN1CCCC1 [Compound 432, N^2-(4-ethoxy-3-(3-(pyrrolidin-1-yl)propoxy)phenyl)-N^4,6-dimethylpyrimidine-2,4-diamine]
22 | > 10 | CNc1ccnc(Nc2ccc(OC)c(OCc3noc(C4CC4)n3)c2)n1 [Compound 433, N^2-(3-((5-cyclopropyl-1,2,4-oxadiazol-3-yl)methoxy)-4-methoxyphenyl)-N^4-methylpyrimidine-2,4-diamine]
23 | > 10 | CNc1ccnc(Nc2ccc(OC)c(OCc3cn(C4CC4)nn3)c2)n1 [Compound 434, N^2-(3-((1-cyclopropyl-1H-1,2,3-triazol-4-yl)methoxy)-4-methoxyphenyl)-N^4-methylpyrimidine-2,4-diamine]
24 | 1 to 10 | CNc1cc(C)nc(Nc2ccc(OC)c(OCC3CCN(C)CC3)c2)n1 [Compound 435, N^2-(4-methoxy-3-((1-methylpiperidin-4-yl)methoxy)phenyl)-N^4,6-dimethylpyrimidine-2,4-diamine]
25 | > 10 | CNc1cc(C)nc(Nc2ccc(OC)c(OCC3CCN(CC4CC4)CC3)c2)n1 [Compound 436, N^2-(3-((1-(cyclopropylmethyl)piperidin-4-yl)methoxy)-4-methoxyphenyl)-N^4,6-dimethylpyrimidine-2,4-diamine]
26 | 1 to 10 | CNc1cc(C)nc(Nc2ccc(OC)c(OCC3CNC3)c2)n1 [Compound 437, N^2-(3-(azetidin-3-ylmethoxy)-4-methoxyphenyl)-N^4,6-dimethylpyrimidine-2,4-diamine]
27 | > 10 | CNc1ccnc(Nc2ccc(OC)c(OCCOC3CCCC3)c2)n1 [Compound 440, N^2-(3-(2-(cyclopentyloxy)ethoxy)-4-methoxyphenyl)-N^4-methylpyrimidine-2,4-diamine]
28 | 1 to 10 | CNc1cc(COC)nc(Nc2ccc(OC)c(OCCCN3CCCC3)c2)n1 [Compound 441, N^2-(4-methoxy-3-(3-(pyrrolidin-1-yl)propoxy)phenyl)-6-(methoxymethyl)-N^4-methylpyrimidine-2,4-diamine]
29 | 0.1 to 1 | CNc1cc(C)nc(Nc2ccc(OC)c(OCC3CN(C)C3)c2)n1 [Compound 442, N^2-(4-methoxy-3-((1-methylazetidin-3-yl)methoxy)phenyl)-N^4,6-dimethylpyrimidine-2,4-diamine]
30 | > 10 | CNc1cc(C)nc(Nc2ccc(OC)c(OC3CCN(CC4CC4)CC3)c2)n1 [Compound 443]
31 | 0.1 to 1 | CCN1CC(COc2cc(Nc3nc(C)cc(NC)n3)ccc2OC)C1 [Compound 444]
32 | 1 to 10 | CNc1cc(C)nc(Nc2ccc(OC)c(OCC3CN(CC4CC4)C3)c2)n1 [Compound 445, N^2-(3-((1-(cyclopropylmethyl)azetidin-3-yl)methoxy)-4-methoxyphenyl)-N^4,6-dimethylpyrimidine-2,4-diamine]
33 | 0.1 to 1 | CNc1cc(C)nc(Nc2ccc(OC)c(OCC3CCN(C4CCC4)C3)c2)n1 (centres unmarked) [Compound 446, N^2-(3-((1-cyclobutylpyrrolidin-3-yl)methoxy)-4-methoxyphenyl)-N^4,6-dimethylpyrimidine-2,4-diamine]
34 | > 10 | COc1ccc(Nc2nc(C)cc(O)n2)cc1OCCCN1CCCC1 [Compound 447, 2-((4-methoxy-3-(3-(pyrrolidin-1-yl)propoxy)phenyl)amino)-6-methylpyrimidin-4-ol]

Row | SMILES | IC50 [µM]
35 | CNc1cc(C)nc(Nc2ccc(OC)c(O[C@H]3C[C@@H](CN(C)C)C3)c2)n1 [Compound 318, N^2-(3-((1s,3s)-3-((dimethylamino)methyl)cyclobutoxy)-4-methoxyphenyl)-N^4,6-dimethylpyrimidine-2,4-diamine] | > 10
